The values that follow come from patent publication US20250163104A1, “MACROCYCLIC IMMUNOMODULATORS” (priority 2021, published 2025).

This test has as its target T1, human PD-1 / PD-L1-Ig binding on Jurkat cell line over-expressing human PD-1 (Jurkat-PD-1) (Homo sapiens, UniProt Q15116).
T1 construct: expressed in transfected cells; host or cells: Jurkat
As to the kind of experiment: Jurkat-PD-1 Cell Binding High-Content Screening Assay (CBA). It is filed as cell-based. The conditions noted are these: Jurkat-PD-1 cells, PE-labeled PD-L1-Ig 20 nM final; read-out: Jurkat HPD1_PDL1 IC50. The method, boiled down: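 Jurkat-hPD-1 cells in DMEM with 10% fetal calf serum receive test compound and are held at 37° C for 2 h. PE-labeled PD-L1-Ig is added at 20 nM final and left for 1 hour. Cells are then fixed and Hoechst-stained, and binding is measured by imaging.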

Structures are written as SMILES. Where a SMILES comes first, the peptide text is derived from it. Bridges are numbered along the chain shown (N, C = ends). [ ]: non-standard residue; d: D form. The star is where a group is joined. ξ: configuration not given here. Phe(4-COOH) = N[C@@H](Cc1ccc(C(=O)O)cc1)C(=O)O; Bip = N[C@@H](Cc1ccc(-c2ccccc2)cc1)C(=O)O; Phe(3-Me) = Cc1cccc(C[C@H](N)C(=O)O)c1; Phe(4-F) = N[C@@H](Cc1ccc(F)cc1)C(=O)O; Gly(octyl) = CCCCCCCC[C@H](N)C(=O)O; Val(3-OH) = CC(C)(O)[C@H](N)C(=O)O; hArg = N=C(N)NCCCC[C@H](N)C(=O)O; 4Pal = N[C@@H](Cc1ccncc1)C(=O)O; 2Thi = N[C@@H](Cc1cccs1)C(=O)O; Cha = N[C@@H](CC1CCCCC1)C(=O)O; Cit = NC(=O)NCCC[C@H](N)C(=O)O; Thr(3ξ) = CC(O)[C@H](N)C(=O)O; Carboxymethyl = O=C(O)C*; Orn = NCCC[C@H](N)C(=O)O; Pra = C#CC[C@H](N)C(=O)O; Dab = NCC[C@H](N)C(=O)O; Dap = NC[C@H](N)C(=O)O; Aib = CC(C)(N)C(=O)O; ξA = CC(N)C(=O)O

T1 sequence (Q15116 25-288): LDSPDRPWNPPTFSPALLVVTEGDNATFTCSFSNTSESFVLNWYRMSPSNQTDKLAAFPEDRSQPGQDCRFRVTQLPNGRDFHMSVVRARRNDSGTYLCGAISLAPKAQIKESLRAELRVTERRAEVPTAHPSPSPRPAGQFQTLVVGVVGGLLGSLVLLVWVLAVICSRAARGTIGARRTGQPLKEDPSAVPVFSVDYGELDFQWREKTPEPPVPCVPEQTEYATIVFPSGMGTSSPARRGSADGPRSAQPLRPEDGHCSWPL

Take `CC(C)C[C@H]1NC(=O)[C@H](CCCN)NC(=O)[C@H](CCC(=O)O)NC(=O)[C@H](Cc2ccc(-c3ccccc3)cc2)NC(=O)[C@H](C(C)C)NC(=O)[C@H](Cc2cccs2)NC(=O)[C@H](CC(=O)O)NC(=O)[C@H](Cc2cccs2)NC(=O)[C@H](CN)NC(=O)CSC[C@@H](C(=O)N[C@@H](C)C(N)=O)NC(=O)[C@H]([C@@H](C)O)NC(=O)[C@H](C(C)C)NC(=O)[C@H](CC2CCCCC2)NC(=O)[C@H](CCN)NC1=O` [Compound 2205] ({CH2CO}-[Dap][2Thi]D[2Thi]V[Bip]E[Orn][dL][Dab][Cha]VTCA-NH2; thioether N-14): the IC50 came out at 0.0186 µM. In the case of `CC(C)C[C@@H]1NC(=O)[C@H](CCN)NC(=O)[C@@H](CC(C)C)NC(=O)[C@@H](CC(=O)O)NC(=O)[C@H](C(C)C)NC(=O)[C@H](Cc2ccc(-c3ccccc3)cc2)NC(=O)[C@H](C(C)C)NC(=O)[C@H](Cc2c[nH]c3ccccc23)NC(=O)[C@H](CC(=O)O)NC(=O)[C@H](Cc2ccc(O)cc2)NC(=O)[C@H](CC(N)=O)NC(=O)CSC[C@@H](C(=O)N[C@@H](C)C(N)=O)NC(=O)[C@H]([C@@H](C)O)NC(=O)[C@H](C(C)C)NC1=O` [Compound 1021] ({CH2CO}-NYDWV[Bip]V[dD][dL][Dab]LVTCA-NH2; thioether N-14) it was 0.0268 µM; in that of `CCCCCCCC[C@@H]1NC(=O)[C@H](CCN)NC(=O)[C@@H](CC(C)C)NC(=O)[C@H](CCCN)NC(=O)[C@H](CCCNC(N)=O)NC(=O)[C@H](Cc2ccc(-c3ccccc3)cc2)NC(=O)[C@H](C(C)C)NC(=O)[C@H](Cc2c[nH]c3ccccc23)NC(=O)[C@H](CC(=O)O)NC(=O)[C@H](Cc2ccc(OCC(=O)O)cc2)NC(=O)[C@H](CN)NC(=O)CSC[C@@H](C(=O)N[C@@H](C)C(N)=O)NC(=O)[C@H]([C@@H](C)O)NC(=O)[C@H](C(C)C)NC1=O` [Compound 1352] ({CH2CO}-[Dap]Y(Carboxymethyl)DWV[Bip][Cit][Orn][dL][Dab][Gly(octyl)]VTCA-NH2; thioether N-14), 0.11 µM. To `Cc1cccc(C[C@@H]2NC(=O)[C@H](CC(=O)O)NC(=O)[C@H](Cc3ccc(C(=O)O)cc3)NC(=O)[C@H](Cc3ccncc3)NC(=O)CSC[C@@H](C(=O)N[C@@H](CO)C(N)=O)NC(=O)[C@H](CCC(=O)O)NC(=O)[C@H](C(C)C)NC(=O)[C@H](CC3CCCCC3)NC(=O)[C@H](CCN)NC(=O)[C@@H](CC(C)C)NC(=O)[C@H](CCCN)NC(=O)[C@H](Cc3ccc(OCC(=O)O)cc3)NC(=O)[C@H](Cc3ccc(-c4ccccc4)cc3)NC(=O)[C@H](Cc3ccc(OCC(=O)O)cc3)NC2=O)c1` [Compound 2311] ({CH2CO}-[4Pal][Phe(4-COOH)]D[Phe(3-Me)]Y(Carboxymethyl)[Bip]Y(Carboxymethyl)[Orn][dL][Dab][Cha]VECS-NH2; thioether N-14) belongs 0.0117 µM. To `CC(C)C[C@@H]1NC(=O)[C@H](Cc2c[nH]c3ccccc23)NC(=O)[C@H](CC(=O)O)NC(=O)[C@H](Cc2ccc(O)cc2)NC(=O)[C@H](Cc2ccccc2)NC(=O)CSC[C@@H](C(=O)NCC(N)=O)NC(=O)[C@H]([C@@H](C)O)NC(=O)[C@H](C(C)C)NC(=O)[C@H](CC(C)C)NC(=O)[C@H](CCN)NC(=O)[C@@H](C)NC(=O)[C@H](CCN)NC(=O)[C@H](C(C)C)NC(=O)[C@H](Cc2ccc(-c3ccccc3)cc2)NC1=O` [Compound 1103] ({CH2CO}-FYDWL[Bip]V[Dab][dA][Dab]LVTCG-NH2; thioether N-14) belongs 0.112 µM; to `CC(C)C[C@@H]1NC(=O)[C@H](CCN)NC(=O)[C@@H](CC(C)C)NC(=O)[C@H](CCCN)NC(=O)[C@H](C(C)C)NC(=O)[C@H](Cc2ccc(-c3ccccc3)cc2)NC(=O)[C@H](C(C)C)NC(=O)[C@H](Cc2c[nH]c3ccccc23)NC(=O)[C@H](CC(=O)O)NC(=O)[C@H](Cc2ccc(OCC(=O)O)cc2)NC(=O)[C@H](CN)NC(=O)CSC[C@@H](C(=O)N[C@@H](C)C(N)=O)NC(=O)[C@H]([C@@H](C)O)NC(=O)[C@H](C(C)C)NC1=O` [Compound 1048] ({CH2CO}-[Dap]Y(Carboxymethyl)DWV[Bip]V[Orn][dL][Dab]LVTCA-NH2; thioether N-14), 0.0137 µM; to `Cc1cccc(C[C@@H]2NC(=O)[C@H](CC(=O)O)NC(=O)[C@H](Cc3ccc(F)cc3)NC(=O)[C@H](C(C)O)NC(=O)CSC[C@@H](C(=O)N[C@@H](CCN)C(N)=O)NC(=O)[C@H](C(C)O)NC(=O)[C@H](C(C)(C)O)NC(=O)[C@H](CC3CCCCC3)NC(=O)[C@H](CCN)NC(=O)[C@@H](CC(C)C)NC(=O)[C@H](CCCN)NC(=O)[C@H](Cc3ccc(C(=O)O)cc3)NC(=O)[C@H](Cc3ccc(-c4ccccc4)cc3)NC(=O)[C@H](Cc3ccc(C(=O)O)cc3)NC2=O)c1` (stereo partly drawn) [Compound 2685] ({CH2CO}-[Thr(3ξ)][Phe(4-F)]D[Phe(3-Me)][Phe(4-COOH)][Bip][Phe(4-COOH)][Orn][dL][Dab][Cha][Val(3-OH)][Thr(3ξ)]C[Dab]-NH2; thioether N-14), 0.006 µM. Regarding `C#CC[C@H](NC(=O)C(C)NC(=O)[C@@H]1CSCC(=O)N[C@@H](Cc2ccncc2)C(=O)N[C@@H](Cc2ccc(C(=O)O)cc2)C(=O)N[C@@H](CC(=O)O)C(=O)N[C@@H](Cc2cccc(C)c2)C(=O)N[C@@H](Cc2ccc(OCC(=O)O)cc2)C(=O)N[C@@H](Cc2ccc(-c3ccccc3)cc2)C(=O)N[C@@H](Cc2ccc(OCC(=O)O)cc2)C(=O)N[C@@H](CCCN)C(=O)N[C@H](CC(C)C)C(=O)N[C@@H](CCN)C(=O)N[C@@H](CC2CCCCC2)C(=O)N[C@@H](C(C)(C)O)C(=O)N[C@@H](CO)C(=O)N1)C(N)=O` (stereo partly drawn) [Compound 2329] ({CH2CO}-[4Pal][Phe(4-COOH)]D[Phe(3-Me)]Y(Carboxymethyl)[Bip]Y(Carboxymethyl)[Orn][dL][Dab][Cha][Val(3-OH)]SC[ξA][Pra]-NH2; thioether N-14), the IC50 came out at 0.973 µM. Regarding `CC[C@@H](C)[C@@H]1NC(=O)[C@H](Cc2ccc(-c3ccccc3)cc2)NC(=O)[C@H](C(C)C)NC(=O)[C@H](Cc2cccc(C)c2)NC(=O)[C@H](CC(=O)O)NC(=O)[C@H](Cc2ccc(C(=O)O)cc2)NC(=O)[C@H](Cc2ccncc2)NC(=O)CSC[C@@H](C(=O)N[C@@H](C)C(N)=O)NC(=O)[C@H]([C@@H](C)O)NC(=O)[C@H](C(C)C)NC(=O)[C@H](CC2CCCCC2)NC(=O)[C@H](CCN)NC(=O)[C@@H](CC(C)C)NC(=O)[C@H](CCCN)NC1=O` [Compound 1620], the IC50 was 0.005 µM. To `Cc1cccc(C[C@@H]2NC(=O)[C@H](CC(=O)O)NC(=O)[C@H](Cc3ccc(C(=O)O)cc3)NC(=O)[C@H](Cc3ccncc3)NC(=O)CSC[C@@H](C(=O)N[C@@H](CO)C(N)=O)NC(=O)[C@H](CCC(N)=O)NC(=O)[C@H](C(C)C)NC(=O)[C@H](CC3CCCCC3)NC(=O)[C@H](CCN)NC(=O)[C@@H](CC(C)C)NC(=O)[C@H](CCCN)NC(=O)[C@H](Cc3ccc(OCC(=O)O)cc3)NC(=O)[C@H](Cc3ccc(-c4ccccc4)cc3)NC(=O)[C@H](Cc3ccc(OCC(=O)O)cc3)NC2=O)c1` [Compound 2312] ({CH2CO}-[4Pal][Phe(4-COOH)]D[Phe(3-Me)]Y(Carboxymethyl)[Bip]Y(Carboxymethyl)[Orn][dL][Dab][Cha]VQCS-NH2; thioether N-14) belongs 0.0079 µM; to `CC(C)C[C@H]1NC(=O)[C@H](CCCN)NC(=O)[C@H](C(C)C)NC(=O)[C@H](Cc2ccc(-c3ccccc3)cc2)NC(=O)[C@H](C(C)C)NC(=O)[C@H](Cc2c[nH]c3ccccc23)NC(=O)[C@H](CC(=O)O)NC(=O)[C@H](Cc2ccc(OCC(=O)O)cc2)NC(=O)[C@H](CCCCNC(=N)N)NC(=O)CSC[C@@H](C(=O)N[C@@H](CC(N)=O)C(N)=O)NC(=O)[C@H](C(C)O)NC(=O)[C@H](C(C)C)NC(=O)[C@H](CC2CCCCC2)NC(=O)[C@H](CCN)NC1=O` (stereo partly drawn) [Compound 2546] ({CH2CO}-[hArg]Y(Carboxymethyl)DWV[Bip]V[Orn][dL][Dab][Cha]V[Thr(3ξ)]CN-NH2; thioether N-14), 0.0075 µM. In the case of `Cc1cccc(C[C@@H]2NC(=O)[C@H](CC(=O)O)NC(=O)[C@H](Cc3ccc(C(=O)O)cc3)NC(=O)[C@H](Cc3ccncc3)NC(=O)CSC[C@@H](C(N)=O)NC(=O)[C@H]([C@@H](C)O)NC(=O)[C@H](C(C)C)NC(=O)[C@H](CC(C)C)NC(=O)[C@H](CCN)NC(=O)[C@@H](CC(C)C)NC(=O)[C@H](CCCN)NC(=O)[C@H](CCCNC(N)=O)NC(=O)[C@H](Cc3ccc(-c4ccccc4)cc3)NC(=O)[C@H](C(C)C)NC2=O)c1` [Compound 2267] ({CH2CO}-[4Pal][Phe(4-COOH)]D[Phe(3-Me)]V[Bip][Cit][Orn][dL][Dab]LVTC-NH2; thioether N-14) it was 0.0448 µM.

Consider `C#CC[C@H](NC(=O)[C@H](CCN)NC(=O)[C@@H]1CSCC(=O)N[C@@H](CN)C(=O)N[C@@H](Cc2ccc(OCC(=O)O)cc2)C(=O)N[C@@H](CC(=O)O)C(=O)N[C@@H](Cc2cccc(C)c2)C(=O)N[C@@H](Cc2ccc(OCC(=O)O)cc2)C(=O)N[C@@H](Cc2ccc(-c3ccccc3)cc2)C(=O)N[C@@H](Cc2ccc(OCC(=O)O)cc2)C(=O)N[C@@H](CCCN)C(=O)N[C@H](CC(C)C)C(=O)N[C@@H](CCN)C(=O)N[C@@H](CC2CCCCC2)C(=O)N[C@@H](C(C)(C)O)C(=O)N[C@@H]([C@@H](C)O)C(=O)N1)C(N)=O` [Compound 1858] ({CH2CO}-[Dap]Y(Carboxymethyl)D[Phe(3-Me)]Y(Carboxymethyl)[Bip]Y(Carboxymethyl)[Orn][dL][Dab][Cha][Val(3-OH)]TC[Dab][Pra]-NH2; thioether N-14), for which the IC50 was determined as 0.005 µM. Turning to `Cc1cccc(C[C@@H]2NC(=O)[C@H](CC(=O)O)NC(=O)[C@H](Cc3ccc(C(=O)O)cc3)NC(=O)[C@H](Cc3ccncc3)NC(=O)CSC[C@@H](C(=O)NC(C)(C)C(N)=O)NC(=O)[C@H](CO)NC(=O)[C@H](C(C)C)NC(=O)[C@H](CC3CCCCC3)NC(=O)[C@H](CCN)NC(=O)[C@@H](CC(C)C)NC(=O)[C@H](CCCN)NC(=O)[C@H](Cc3ccc(OCC(=O)O)cc3)NC(=O)[C@H](Cc3ccc(-c4ccccc4)cc3)NC(=O)[C@H](Cc3ccc(OCC(=O)O)cc3)NC2=O)c1` [Compound 2296] ({CH2CO}-[4Pal][Phe(4-COOH)]D[Phe(3-Me)]Y(Carboxymethyl)[Bip]Y(Carboxymethyl)[Orn][dL][Dab][Cha]VSC[Aib]-NH2; thioether N-14), the half-inhibitory concentration (IC50) was determined as 0.0088 µM.

In general, IC50 refers to the concentration at which inhibition is half-maximal.
